Measured values from US10562857B2 (AFASCI, Inc., priority 2015, dated 2020).
Entries after “also recorded” stand apart in the source; their conditions may differ.

What was measured:
[1] = SafetyScreen 44 ancillary pharmacology panel
From the text: Moreover, compounds useful in therapeutic formulations may be further screened for undesired side effect activities by utilizing large ancillary pharmacology panel screens, for example, SafetyScreen 44 and the Ames microsomemutagenicity assay (Eurofins-Cerep, US and France).

[2] = system: baclofen-induced absence seizures in mice; test: Baclofen-induced absence seizures in mice (EEG spike wave discharges); format: in vivo, mouse; conditions: 30 mg/kg I.P. 30 min before baclofen
From the text: FIG. 11. Effects of EXAMPLE-128 on baclofen-induced absence seizures in mice.
Absence seizures, especially childhood absence epilepsy, is characterized by a brief loss of consciousness and muscle tone as the primary manifestations. Ethosuximide, a weak and non-selective T-type calcium channel inhibitor, is effective in treating only absence seizures (Huguenard J R, 2002); while the GABAB baclofen exacerbates transgenic absence seizure models and alone induces absence seizures in wild-type animals (Han et al., 2012). […] The baclofen-induced brain seizure activity mimics absence seizures.

CFA mice = test: Complete Freund's Adjuvant (CFA)-induced inflammatory pain in mice, von Frey test; format: in vivo, mouse; conditions: 30 mg/kg I.P.
Description: FIG. 7. Effects of EXAMPLE-96, 107 or 115 (each 30 mg/kg, I.P.) or gabapentin (as a benchmark, 100 mg/kg, I.P) on Complete Freund's Adjuvant (CFA)-induced inflammation in male, mice (C57BL/6, ˜2 months old; n=8 mice per group). Mechanical pain threshold assessment of CFA mice's left hindpaws were measured using von Frey monofilament test at 0.5, 1, 2, 4, and 6 hours after treatment.
Because knockout or antisense knockdown of the Cav3.2 isoform produces analgesic effects in neuropathic pain as well as in inflammatory pain in mice (Choi et al., 2007), we used the Complete Freund adjuvant (CFA)-inflammatory pain in mice to investigate the drug effects. EXAMPLE-96, -115, and -107 (each at 30 mg/kg, I.P.) and a reference gabapentin (100 mg/kg, I.P.) was individually administered to mice that had CFA-induced inflammation on their left hindpaws.

CC(C)(C)NC(=O)CN1CCC2(CC1)CC2NC(=O)c1cc(F)cc(Cl)c1 (single isomer, unassigned) [Example 128, (S)—N-(6-(2-(tert-Butylamino)-2-oxoethyl)-6-azaspiro[2.5]octan-1-yl)-3-chloro-5-fluorobenzamide or (R)—N-(6-(2-(tert-Butylamino)-2-oxoethyl)-6-azaspiro[2.5]octan-1-yl)-3-chloro-5-fluorobenzamide]
off-target activities [1]: no significant off-target activities | spike wave discharges (SWD) occurring frequency [2]: significantly reduced the SWD occurring frequence; also recorded: significantly reduced the SWD occurring frequency

O=C(Nc1nnc(-c2ccccc2)o1)c1ccc(Cl)s1 [Example 115, 5-Chloro-N-(5-phenyl-1,3,4-oxadiazol-2-yl)thiophene-2-carboxamide]
mechanical pain threshold, CFA-induced inflammation (CFA mice): showed an analgesic effect in mechanical pain
